The results in this text go back to patent US20240294535A1, “IMIDAZOTRIAZINE THIOBENZAMIDE DERIVATIVE, AND PREPARATION METHOD AND APPLICATION THEREOF” (Yunbaiyao Zhengwu Science and Technology (Shanghai) Co., …, priority 2023, published 2024).

For one series, the target named is c-MET (Homo sapiens (Human), UniProt P08581). The series can be described thus: c-MET kinase inhibitory activity (ELISA, poly(Glu,Tyr) substrate). In kind it is biochemical. The conditions noted are these: ATP 4 μM, 37° C. 1 h; read-out: c-MET kinase inhibitory enzymatic activity IC50.
Another series concerns MKN-45 cells. The series can be described thus: Anti-proliferation activity, CTG, MKN-45 cells. The settings on record: Homo sapiens; MKN-45 cells, 48 h, CTG. In kind it is cell-based. Here is the method: (§1) Experimental objective: To evaluate the anti-proliferation activities of the compounds against MKN-45 cells, EBC-1 cells, Hs746T cells and Vero cells.
(§2) Experimental methods: Tumor cell lines were cultured and periodically passaged, and cells in logarithmic growth phase were taken for plate spreading. The cells were stained with Trypan blue, counted and adjusted to an appropriate density. 50 μL of cell suspension was added into each well of a culture plate, and 50 μL of nutrient solution without cells was added into a blank control well. The culture plate was precultured for 24 h in an incubator under the condition of 37° C., 5% CO2 and 100% relative humidity.
(§3) The DMSO stock solutions of the compounds 1-28 and Capmatinib were prepared, and diluted with Tecan D300e. Each compound was diluted to 7 concentration levels: 0.50 μM, 0.125 μM, 0.031 μM, 0.0078 μM, 0.0020 μM, 0.00049 μM, 0.00012 μM. The experiment was carried out in triplicate.
(§4) 50 μL of the solution was added into each designated well, and the culture plate was incubated for 48 h. 50 μL of CTG working solution was added to each well. The culture plate was wrapped with aluminum foil to avoid light and shaken in the shaker for 2 min to induce cell lysis. The culture plate was placed at room temperature for 10 min to stabilize light-emitting signal which was detected with a 2014 EnVision plate reader. Experimental data was processed by GraphPad Prism 7 to calculate IC50.

The test system of a further series is EBC-1 cells. Kind of series: Anti-proliferation activity, CTG, EBC-1 cells. In kind it is cell-based, human. The settings on record: Homo sapiens; EBC-1 cells, 48 h, CTG. Here is the method: as §1, §2, §3, §4
In the next series the test system is Hs746T cells. Kind of series: Anti-proliferation activity, CTG, Hs746T cells. The series is classed as cell-based. The conditions noted are these: Homo sapiens; Hs746T cells, 48 h, CTG. Here is the method:
as §1, §2, §3, §4

In another series the test system is Vero cells. Kind of series: Anti-proliferation activity, CTG, Vero cells. In kind it is cell-based. The conditions noted are these: Chlorocebus sabaeus; Vero cells, 48 h, CTG. Here is the method:
as §1, §2, §3, §4

Series [1] deals with human EBC-1 cell subcutaneous xenograft model. The series can be described thus: In vivo anti-tumor assessment in EBC-1 cell xenograft tumor mouse model. Also noted: species or system mice. The conditions noted are these: 10 mg/kg P.O. QD × 15 days; for inhibition of growth of the tumor in mice (tumor volume change): FIG. 2. Here is the method: Experimental objective: To investigate in vivo efficacy of representative compounds on human lung squamous carcinoma cell (human EBC-1 cell) subcutaneous xenograft model.
Experimental methods: The EBC-1 cell xenograft tumor mouse model was used, according to the diameters of tumor, the tumor volume (TV), relative tumor volume (RTV), relative tumor proliferation rate (T/C (%)) and tumor growth inhibition value (TGI (%)) were calculated.
TGI (%) or T/C (%) of the compounds was evaluated. TGI (%) reflects a tumor growth inhibitory rate. TGI (%) was calculated as follows: TGI (%)=[1−(average tumor volume at the end of administration in a treatment group-average tumor volume at the beginning of administration in the treatment group)/(average tumor volume at the end in a solvent control group-average tumor volume at the beginning in the solvent control group)]×100%.
T/C (%) was calculated as follows: T/C (%)=TRTV/CRTV×100%; where TRTV is treatment RTV, and CRTV is negative control RTV. According to the measurement results of the tumor, RTV was calculated, and the calculating formula for RTV is as follows: RTV=Vt/V0; where V0 is the average tumor volume measured on the day of first administration; and Vt is the average tumor volume measured on a specified day. TRTV and CRTV were measured on the same day.

A further series can be described thus: in vivo. The settings on record: both, Kunming, mouse, po.

As a reminder, the IC50 is the concentration at which inhibition is half-maximal. In general, LD50 refers to the dose at which mortality reaches 50%. A higher LD50 goes with lower toxicity.

Sequence of c-MET (P08581 25-1390): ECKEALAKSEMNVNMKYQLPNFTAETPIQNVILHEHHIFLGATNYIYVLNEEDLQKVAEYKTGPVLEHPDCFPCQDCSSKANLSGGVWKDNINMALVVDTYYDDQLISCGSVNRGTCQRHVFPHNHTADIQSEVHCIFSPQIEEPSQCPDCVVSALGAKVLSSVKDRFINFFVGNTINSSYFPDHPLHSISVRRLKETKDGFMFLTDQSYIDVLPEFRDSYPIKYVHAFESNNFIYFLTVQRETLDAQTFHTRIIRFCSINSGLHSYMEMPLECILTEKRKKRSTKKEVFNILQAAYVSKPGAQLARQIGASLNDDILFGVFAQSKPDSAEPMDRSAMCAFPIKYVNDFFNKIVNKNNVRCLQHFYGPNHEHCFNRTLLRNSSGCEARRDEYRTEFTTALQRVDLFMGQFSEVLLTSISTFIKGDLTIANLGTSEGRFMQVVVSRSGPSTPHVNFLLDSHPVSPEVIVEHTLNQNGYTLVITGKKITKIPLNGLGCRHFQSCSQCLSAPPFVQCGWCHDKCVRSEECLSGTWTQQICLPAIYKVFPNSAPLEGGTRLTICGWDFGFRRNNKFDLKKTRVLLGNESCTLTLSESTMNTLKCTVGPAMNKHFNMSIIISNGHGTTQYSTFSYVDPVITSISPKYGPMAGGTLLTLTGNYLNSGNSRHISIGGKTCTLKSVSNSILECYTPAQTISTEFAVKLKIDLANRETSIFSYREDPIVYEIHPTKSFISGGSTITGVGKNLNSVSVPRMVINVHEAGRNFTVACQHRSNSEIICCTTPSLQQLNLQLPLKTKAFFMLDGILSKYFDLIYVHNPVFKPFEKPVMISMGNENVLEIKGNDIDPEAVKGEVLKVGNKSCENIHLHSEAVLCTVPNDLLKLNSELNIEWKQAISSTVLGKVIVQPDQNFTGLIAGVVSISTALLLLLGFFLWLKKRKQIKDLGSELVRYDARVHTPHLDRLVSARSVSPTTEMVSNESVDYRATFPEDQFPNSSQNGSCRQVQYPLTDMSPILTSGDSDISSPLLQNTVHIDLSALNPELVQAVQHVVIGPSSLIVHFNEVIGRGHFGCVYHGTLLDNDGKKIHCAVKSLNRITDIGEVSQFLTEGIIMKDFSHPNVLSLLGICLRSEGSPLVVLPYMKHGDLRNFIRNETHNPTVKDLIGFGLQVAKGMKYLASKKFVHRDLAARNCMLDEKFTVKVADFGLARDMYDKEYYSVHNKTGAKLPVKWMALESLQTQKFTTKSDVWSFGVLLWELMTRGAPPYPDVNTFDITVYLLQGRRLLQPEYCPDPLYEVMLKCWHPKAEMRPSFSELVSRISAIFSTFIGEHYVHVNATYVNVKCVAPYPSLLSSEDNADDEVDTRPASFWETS

Regarding `CNC(=S)c1ccc(-c2cnc3ncc(Cc4ccc5nccnc5c4)n3n2)cc1F` [Compound 17], the half-maximal inhibitory concentration (IC50) on c-MET turned out to be 0.0016 nM; with MKN-45 cells, 1.2 nM; in the series with EBC-1 cells, 1.6 nM; in the series with Hs746T cells it was 1.2 nM; with Vero cells, 123 nM. The “T/C(%)” value in series [1] stood at 20.42%. For the same molecule, in series [1], the “TGI(%)” value turned out to be 96.76%. Further, the “Tumor Volume (Day 15)” value in series [1] was 184 ± 27 mm^3. Further, in series [1] (end of the experiment), the “inhibition of growth of the tumor in mice (tumor volume change)” value is “better inhibitory effects”. This molecule came in with a 50% lethal dose (LD50) in the series “in vivo” of 318 mg/kg.

For `CNC(=O)c1ccc(-c2cnc3ncc(Cc4ccc5ncccc5c4)n3n2)cc1F` [Capmatinib, reference compound], the IC50 with MKN-45 cells is 5.7 nM; with EBC-1 cells, 3.9 nM; in the series with Hs746T cells, 4.5 nM; in the series with Vero cells, 68 nM. For the same molecule, the “T/C(%)” value in series [1] is 24.97%. Besides, the “TGI(%)” value in series [1] was 91.23%. For the same molecule, the “Tumor Volume (Day 15)” value in series [1] is reported as 225 ± 25 mm^3. For the same molecule, the “changes in body weight of the mice” value in series [1] (end of the experiment, FIG. 1) is given as “greater losses in body weight compared to those in the other groups”. The “inhibition of growth of the tumor in mice (tumor volume change)” value in series [1] (end of the experiment) is reported as “could effectively inhibit the growth of the tumor in mice”. For the same molecule, in the series “in vivo”, the 50% lethal dose (LD50) worked out at 164 mg/kg.

For the molecule `CNC(=S)c1ccc(-c2cnc3ncc(Cc4ccc5occc5c4)n3n2)cc1F` [Compound 18], the concentration for half-maximal inhibition (IC50) amounted to 0.0013 nM on c-MET; 1.5 nM in the series with MKN-45 cells; 1.1 nM in the series on EBC-1 cells; 1.5 nM with Hs746T cells; 148 nM in the series on Vero cells. Besides, in the series “in vivo”, the LD50 is 302 mg/kg.

As to `CNC(=S)c1ccc(-c2cnc3ncc(Cc4cc(F)c5ncccc5c4F)n3n2)cc1F` [Compound 14], the IC50 came out at 0.0026 nM at c-MET; 1.5 nM in the series on MKN-45 cells; 1.2 nM in the series with EBC-1 cells; 1.1 nM in the series with Hs746T cells; 226 nM in the series on Vero cells. Also, the LD50 in “in vivo” was determined as 291 mg/kg.

In the case of `CNC(=S)c1ccc(-c2cnc3ncc(Cc4ccc5ncccc5c4)n3n2)cc1OC` [Compound 12], the concentration for half-maximal inhibition (IC50) was 0.0019 nM on c-MET; 1.1 nM in the series with MKN-45 cells; 1.7 nM in the series with EBC-1 cells; 1.1 nM in the series on Hs746T cells; 236 nM in the series with Vero cells. The molecule also displayed a median lethal dose (LD50) in “in vivo” of 286 mg/kg.

`Fc1cc(-c2cnc3ncc(Cc4ccc5ncccc5c4)n3n2)ccc1C(=S)NC1CC1` [Compound 4]: the IC50 at c-MET amounted to 0.0025 nM; in the series on MKN-45 cells, 1.9 nM; with EBC-1 cells it was 1.8 nM; with Hs746T cells it was 1.4 nM; in the series with Vero cells, 216 nM. In the series “in vivo”, this molecule gave an LD50 of 320 mg/kg.

`CNC(=S)c1ccc(-c2cnc3ncc(Cc4ccc5ncccc5c4)n3n2)cc1NC` [Compound 10]: the IC50 is 0.0016 nM on c-MET; 1.8 nM with MKN-45 cells; 1.9 nM in the series with EBC-1 cells; 1.5 nM with Hs746T cells; 164 nM in the series with Vero cells. The same molecule showed an LD50 in the series “in vivo” of 292 mg/kg.
